Literature values as cited in paper PMC4891020, “Preclinical evaluation of a nanoformulated antihelminthic, niclosamide, in ovarian cancer” (Oncotarget, 2016).
Values after ≈ are worked out from the molar mass of the structure shown.

Key:
[1] = set-up: method as in earlier work

**Q.** For `O=C(Nc1ccc([N+](=O)[O-])cc1Cl)c1cc(Cl)ccc1O` [Niclosamide, niclosamide], which “systemic bioavailability when administered orally” value is on record?
**A.** ~10%

**Q.** And the water solubility [1]?
**A.** 0.23 µg/mL (≈ 0.703 µM)
